Assay results from patent US11911434B2, “Stable antibody-drug conjugate, preparation method therefor, and use thereof” (GENEQUANTUM HEALTHCARE (SUZHOU) CO., LTD., priority 2014, dated 2024).

What was measured:
HCC-1954 cells = experiment: Tumor cell proliferation, CellTiter Glo, HCC1954; type: cell-based, human; details: HCC-1954, 48-96 h; read-out: Inhibition effects on tumor cell proliferation (IC50)
Procedure: (§1) 1) ErbB2/Her2 low expressing human breast cancer cells MCF-7, MDA-MB-468, ErbB2/Her2 high expressing human breast cancer cells BT-474, SK-BR-3, HCC1954, human ovarian cancer cells SK-OV-3, human gastric cancer cell NCI-N87 was seeded into a 96-well plate at 100 μl/well (containing 1000 to 10000 cells), and incubated in a cell culture incubator overnight (37° C., 5% CO2, 95% air, 100% humidity).
(§2) 3) The cell plate was removed from the incubator, equilibrated for about 30 minutes to room temperature. Each well was added 100 μl CellTiter Glo reagent, shocked in an oscillator for 2 min, then left stand for 10 min at room temperature in dark, the relative light units (RLU) is measured with a BioTech Gen5 microplate reader.

MDA-MB-468 cells = experiment: Tumor cell proliferation, CellTiter Glo, MDA-MB-468; type: cell-based, human; details: MDA-MB-468, 48-96 h; read-out: Inhibition effects on tumor cell proliferation (IC50)
Procedure: as §1, §2

NCI-N87 cells = experiment: Tumor cell proliferation, CellTiter Glo, NCI-N87; type: cell-based, human; details: NCI-N87, 48-96 h; read-out: Inhibition effects on tumor cell proliferation (IC50)
Procedure: as §1, §2

SK-BR-3 cells = experiment: Tumor cell proliferation, CellTiter Glo, SK-BR-3; type: cell-based, human; details: SK-BR-3, 48-96 h; read-out: Inhibition effects on tumor cell proliferation (IC50)
Procedure: as §1, §2

BT-474 cells = experiment: Tumor cell proliferation, CellTiter Glo, BT-474; type: cell-based, human; details: BT-474, 48-96 h; read-out: Inhibition effects on tumor cell proliferation (IC50)
Procedure: as §1, §2

[1] = test system: cells with low ErbB2/Her2 expression (MCF-7, MDA-MB-468); experiment: Tumor cell proliferation, cells with low ErbB2/Her2 expression; type: cell-based, human; details: 0.005-30 nM
Procedure: as §1, §2

MCF-7 cells = experiment: Tumor cell proliferation, CellTiter Glo, MCF-7; type: cell-based, human; details: MCF-7, 48-96 h; read-out: Inhibition effects on tumor cell proliferation (IC50)
Procedure: as §1, §2

[2] = test system: cells with high ErbB2/Her2 expression (BT-474, SK-BR-3, HCC1954, SK-OV-3, NCI-N87); experiment: Tumor cell proliferation, cells with high ErbB2/Her2 expression; type: cell-based, human; details: 0.005-30 nM
Procedure: as §1, §2

SK-OV-3 cells = experiment: Tumor cell proliferation, CellTiter Glo, SK-OV-3; type: cell-based, human; details: SK-OV-3, 48-96 h; read-out: Inhibition effects on tumor cell proliferation (IC50)
Procedure: as §1, §2

HCC1954 xenograft = HCC1954 xenograft in nude mice; type: in vivo, BALB/c nude mouse; details: 5 mg/kg
Procedure: The in vivo anti-tumor effect of the candidate ADC was determined using xenograft model of nude mice after administration of the candidate ADC.
1) HCC1954 breast cancer cells in the logarithmic growth phase were collected and adjusted with matrigel buffer (PBS: BD Matrigel=1:1) to a cell density of 2.5×10^7/ml. 0.2 ml of this prepared HCC1954 cell suspension was injected subcutaneously to the right scapula of each BALB/c nude mouse (6 to 8 week-old, SPF grade, female).
2) 7 days after cell inoculation, the diameter of the tumor was measured by caliper and the tumor volume was calculated according to the Formula: V=0.5a×b^2 (a is the longest diameter of the tumor, b is the shortest diameter of the tumor). […] Administration was via the tail vein injection, and the control group received an equal volume of the vehicle. […] The tumor volumes at each time point were calculated and compared between groups. At the same time, the T-C or T/C value was used as the index to evaluate the anti-tumor activity of each drug. T-C value is calculated as the follows: T is the average time (Days) when the average tumor volume of each treatment group reaches a preset size (500 mm^3), C is the average time (Day) when the average tumor volume of the controlled group reaches the preset size (500 mm^3). While T/C (percentage) is the index for tumor inhibition effect, T is the average tumor volume of all the drug treatment groups at a fixed time point, and C is the average tumor volume of the control group at the fixed time point.

Row | Compound | IC50 (HCC-1954 cells) [nM] | IC50 (MDA-MB-468 cells) [nM] | IC50 (NCI-N87 cells) [nM] | IC50 (SK-BR-3 cells) [nM] | IC50 (BT-474 cells) [nM] | inhibition effect on proliferation (in words) [1] | IC50 (MCF-7 cells) [nM] | inhibition effect on proliferation (in words) [2] | IC50 (SK-OV-3 cells) [nM] | inhibition on ErbB2/Her2 positive breast cancer (in words) (HCC1954 xenograft) | tumor volumes compared with control group (HCC1954 xenograft; 10 days after administration) | Tumor Size at day 31 (Mean ± SEM) (HCC1954 xenograft; single tail vein injection, n=10) [mm^3] | tumor regrowth (HCC1954 xenograft; until 38 days after the administration) | T-C at 500 mm^3 (HCC1954 xenograft; time to reach 500 mm^3, treated minus control) [days] | T/C (HCC1954 xenograft; treated / control average tumor volume) [%]
1 | COc1cc2cc(c1Cl)N(C)C(=O)C[C@H](OC(=O)[C@H](C)N(C)C(=O)CCS)[C@]1(C)O[C@H]1[C@H](C)[C@@H]1C[C@@](O)(NC(=O)O1)[C@H](OC)/C=C/C=C(\C)C2 [DM1] | 2.9 | 4.22 | 7.18 | 1.92 | 16.3 | significant inhibition effect | 5.71 | significant inhibition effect | 1.59 |  |  |  |  |  | 
2 | ado-trastuzumab emtansine [Kadcyla] | 0.049 |  | 0.031 | 0.03 | 0.144 | only inhibits the proliferation of cells with low ErbB2/Her2 expression at high concentrations |  |  | 0.049 | significant inhibition | significantly smaller than control group | 29 ± 4 | No sign of tumor regrowth | >17 | 1.3
